Source: the supplement of paper PMC10307832

Legend:
Experiment in all cases: relative viability (nuclei count vs DMSO), 5 days (fraction); higher = more cells survive
Elesclomol + Pictilisib = compound: CN(NC(=O)CC(=O)NN(C)C(=S)c1ccccc1)C(=S)c1ccccc1 [Elesclomol] + CS(=O)(=O)N1CCN(Cc2cc3nc(-c4cccc5[nH]ncc45)nc(N4CCOCC4)c3s2)CC1 [Pictilisib] (partner 1 µM)
Procedure, shortened: (§1)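 Relative viability is defined as nuclei in treated wells over nuclei in vehicle wells. Duplicate plates were run and medians reported. Lung cancer cell lines in 1536-well plates were dosed by pin tool one day after seeding, with one drug or with a fixed anchor-drug dose plus five library-drug doses (not always all listed) in √10 steps, and nuclei were counted after 5 days.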

Elesclomol + Lapatinib = compound: CN(NC(=O)CC(=O)NN(C)C(=S)c1ccccc1)C(=S)c1ccccc1 [Elesclomol] + CS(=O)(=O)CCNCc1ccc(-c2ccc3ncnc(Nc4ccc(OCc5cccc(F)c5)c(Cl)c4)c3c2)o1 [Lapatinib] (partner 2 µM)
Procedure, shortened: as §1

Elesclomol + Foretinib = compound: CN(NC(=O)CC(=O)NN(C)C(=S)c1ccccc1)C(=S)c1ccccc1 [Elesclomol] + COc1cc2c(Oc3ccc(NC(=O)C4(C(=O)Nc5ccc(F)cc5)CC4)cc3F)ccnc2cc1OCCCN1CCOCC1 [Foretinib] (partner 0.25 µM)
Procedure, shortened: as §1

Elesclomol + Bortezomib = compound: CN(NC(=O)CC(=O)NN(C)C(=S)c1ccccc1)C(=S)c1ccccc1 [Elesclomol] + CC(C)C[C@H](NC(=O)[C@H](Cc1ccccc1)NC(=O)c1cnccn1)B(O)O [Bortezomib] (partner 0.002 µM)
Procedure, shortened: as §1

Elesclomol + Linsitinib = compound: CN(NC(=O)CC(=O)NN(C)C(=S)c1ccccc1)C(=S)c1ccccc1 [Elesclomol] + C[C@]1(O)C[C@@H](c2nc(-c3ccc4ccc(-c5ccccc5)nc4c3)c3c(N)nccn32)C1 [Linsitinib] (partner 1 µM)
Procedure, shortened: as §1

Elesclomol + Olaparib = compound: CN(NC(=O)CC(=O)NN(C)C(=S)c1ccccc1)C(=S)c1ccccc1 [Elesclomol] + O=C(c1cc(Cc2n[nH]c(=O)c3ccccc23)ccc1F)N1CCN(C(=O)C2CC2)CC1 [Olaparib] (partner 8 µM)
Procedure, shortened: as §1

Elesclomol + Navitoclax = compound: CN(NC(=O)CC(=O)NN(C)C(=S)c1ccccc1)C(=S)c1ccccc1 [Elesclomol] + CC1(C)CCC(c2ccc(Cl)cc2)=C(CN2CCN(c3ccc(C(=O)NS(=O)(=O)c4ccc(N[C@H](CCN5CCOCC5)CSc5ccccc5)c(S(=O)(=O)C(F)(F)F)c4)cc3)CC2)C1 [Navitoclax] (partner 0.5 µM)
Procedure, shortened: as §1

Elesclomol + Alpelisib = compound: CN(NC(=O)CC(=O)NN(C)C(=S)c1ccccc1)C(=S)c1ccccc1 [Elesclomol] + Cc1nc(NC(=O)N2CCC[C@H]2C(N)=O)sc1-c1ccnc(C(C)(C)C(F)(F)F)c1 [Alpelisib] (partner 2 µM)
Procedure, shortened: as §1

Elesclomol + Crizotinib = compound: CN(NC(=O)CC(=O)NN(C)C(=S)c1ccccc1)C(=S)c1ccccc1 [Elesclomol] + C[C@@H](Oc1cc(-c2cnn(C3CCNCC3)c2)cnc1N)c1c(Cl)ccc(F)c1Cl [Crizotinib] (partner 1 µM)
Procedure, shortened: as §1

Elesclomol = compound: CN(NC(=O)CC(=O)NN(C)C(=S)c1ccccc1)C(=S)c1ccccc1 [Elesclomol]
Procedure, shortened: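 For viability, nuclei in each treated well were divided by nuclei in vehicle wells and the median across plates was taken. Lung cancer cell lines in 1536-well plates were pinned with five library-drug doses (not always all listed) spaced by √10, cultured 5 days without medium change, and imaged at 4× after Hoechst staining, with plates passing only at control CV below 25% and at least one doubling.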

Elesclomol + Luminespib = compound: CN(NC(=O)CC(=O)NN(C)C(=S)c1ccccc1)C(=S)c1ccccc1 [Elesclomol] + CCNC(=O)c1noc(-c2cc(C(C)C)c(O)cc2O)c1-c1ccc(CN2CCOCC2)cc1 [Luminespib] (partner 0.01 µM)
Procedure, shortened: as §1

Elesclomol + OSI-027 = compound: CN(NC(=O)CC(=O)NN(C)C(=S)c1ccccc1)C(=S)c1ccccc1 [Elesclomol] + COc1cccc2cc(-c3nc([C@H]4CC[C@H](C(=O)O)CC4)n4ncnc(N)c34)[nH]c12 [OSI-027] (partner 0.5 µM)
Procedure, shortened: as §1

Elesclomol + Dasatinib = compound: CN(NC(=O)CC(=O)NN(C)C(=S)c1ccccc1)C(=S)c1ccccc1 [Elesclomol] + Cc1nc(Nc2ncc(C(=O)Nc3c(C)cccc3Cl)s2)cc(N2CCN(CCO)CC2)n1 [Dasatinib] (partner 0.075 µM)
Procedure, shortened: as §1

Elesclomol + Phenformin = compound: CN(NC(=O)CC(=O)NN(C)C(=S)c1ccccc1)C(=S)c1ccccc1 [Elesclomol] + N=C(N)NC(=N)NCCc1ccccc1 [Phenformin] (partner 250 µM)
Procedure, shortened: as §1

Elesclomol + Tozasertib = compound: CN(NC(=O)CC(=O)NN(C)C(=S)c1ccccc1)C(=S)c1ccccc1 [Elesclomol] + Cc1cc(Nc2cc(N3CCN(C)CC3)nc(Sc3ccc(NC(=O)C4CC4)cc3)n2)n[nH]1 [Tozasertib] (partner 0.1 µM)
Procedure, shortened: as §1

## NCI-H1299
Elesclomol + Pictilisib; first compound 0.003162 µM
  relative viability: 0.743
Elesclomol + Pictilisib; first compound 0.01 µM
  relative viability: 0.171
Elesclomol + Pictilisib; first compound 0.03162 µM
  relative viability: 0.134
Elesclomol + Pictilisib; first compound 0.1 µM
  relative viability: 0.0529
Elesclomol + Lapatinib; first compound 0.003162 µM
  relative viability: 0.947
Elesclomol + Lapatinib; first compound 0.01 µM
  relative viability: 0.852
Elesclomol + Lapatinib; first compound 0.03162 µM
  relative viability: 0.698
Elesclomol + Lapatinib; first compound 0.1 µM
  relative viability: 0.547
Elesclomol + Foretinib; first compound 0.003162 µM
  relative viability: 1.04
Elesclomol + Foretinib; first compound 0.01 µM
  relative viability: 1.06
Elesclomol + Foretinib; first compound 0.03162 µM
  relative viability: 0.588
Elesclomol + Foretinib; first compound 0.1 µM
  relative viability: 0.333
Elesclomol + Bortezomib; first compound 0.003162 µM
  relative viability: 1.03
Elesclomol + Bortezomib; first compound 0.01 µM
  relative viability: 0.921
Elesclomol + Bortezomib; first compound 0.03162 µM
  relative viability: 0.834
Elesclomol + Bortezomib; first compound 0.1 µM
  relative viability: 0.622
Elesclomol + Linsitinib; first compound 0.003162 µM
  relative viability: 0.994
Elesclomol + Linsitinib; first compound 0.01 µM
  relative viability: 0.677
Elesclomol + Linsitinib; first compound 0.03162 µM
  relative viability: 0.549
Elesclomol + Linsitinib; first compound 0.1 µM
  relative viability: 0.145
Elesclomol + Olaparib; first compound 0.003162 µM
  relative viability: 0.991
Elesclomol + Olaparib; first compound 0.01 µM
  relative viability: 0.574
Elesclomol + Olaparib; first compound 0.03162 µM
  relative viability: 0.401
Elesclomol + Olaparib; first compound 0.1 µM
  relative viability: 0.146
Elesclomol + Navitoclax; first compound 0.003162 µM
  relative viability: 1.05
Elesclomol + Navitoclax; first compound 0.01 µM
  relative viability: 0.97
Elesclomol + Navitoclax; first compound 0.03162 µM
  relative viability: 0.932
Elesclomol + Navitoclax; first compound 0.1 µM
  relative viability: 0.661
Elesclomol + Alpelisib; first compound 0.003162 µM
  relative viability: 1.08
Elesclomol + Alpelisib; first compound 0.01 µM
  relative viability: 1.05
Elesclomol + Alpelisib; first compound 0.03162 µM
  relative viability: 0.918
Elesclomol + Alpelisib; first compound 0.1 µM
  relative viability: 0.636
Elesclomol + Crizotinib; first compound 0.003162 µM
  relative viability: 0.613
Elesclomol + Crizotinib; first compound 0.01 µM
  relative viability: 0.822
Elesclomol + Crizotinib; first compound 0.03162 µM
  relative viability: 0.698
Elesclomol + Crizotinib; first compound 0.1 µM
  relative viability: 0.507
Elesclomol; 0.003162 µM
  relative viability: 1.03
Elesclomol; 0.01 µM
  relative viability: 0.733
Elesclomol; 0.03162 µM
  relative viability: 0.709
Elesclomol; 0.1 µM
  relative viability: 0.42

## Calu-6
Elesclomol + Pictilisib; first compound 0.003162 µM
  relative viability: 0.573
Elesclomol + Pictilisib; first compound 0.01 µM
  relative viability: 0.239
Elesclomol + Pictilisib; first compound 0.03162 µM
  relative viability: 0.164
Elesclomol + Pictilisib; first compound 0.1 µM
  relative viability: 0.111
Elesclomol + Lapatinib; first compound 0.003162 µM
  relative viability: 0.602
Elesclomol + Lapatinib; first compound 0.01 µM
  relative viability: 0.276
Elesclomol + Lapatinib; first compound 0.03162 µM
  relative viability: 0.3
Elesclomol + Lapatinib; first compound 0.1 µM
  relative viability: 0.12
Elesclomol + Foretinib; first compound 0.003162 µM
  relative viability: 0.511
Elesclomol + Foretinib; first compound 0.01 µM
  relative viability: 0.15
Elesclomol + Foretinib; first compound 0.03162 µM
  relative viability: 0.0883
Elesclomol + Foretinib; first compound 0.1 µM
  relative viability: 0.0356
Elesclomol + Bortezomib; first compound 0.003162 µM
  relative viability: 0.787
Elesclomol + Bortezomib; first compound 0.01 µM
  relative viability: 0.322
Elesclomol + Bortezomib; first compound 0.03162 µM
  relative viability: 0.16
Elesclomol + Bortezomib; first compound 0.1 µM
  relative viability: 0.155
Elesclomol + Linsitinib; first compound 0.003162 µM
  relative viability: 0.737
Elesclomol + Linsitinib; first compound 0.01 µM
  relative viability: 0.223
Elesclomol + Linsitinib; first compound 0.03162 µM
  relative viability: 0.285
Elesclomol + Linsitinib; first compound 0.1 µM
  relative viability: 0.153
Elesclomol + Olaparib; first compound 0.003162 µM
  relative viability: 0.477
Elesclomol + Olaparib; first compound 0.01 µM
  relative viability: 0.219
Elesclomol + Olaparib; first compound 0.03162 µM
  relative viability: 0.177
Elesclomol + Olaparib; first compound 0.1 µM
  relative viability: 0.121
Elesclomol + Navitoclax; first compound 0.003162 µM
  relative viability: 0.476
Elesclomol + Navitoclax; first compound 0.01 µM
  relative viability: 0.166
Elesclomol + Navitoclax; first compound 0.03162 µM
  relative viability: 0.122
Elesclomol + Navitoclax; first compound 0.1 µM
  relative viability: 0.0729
Elesclomol + Alpelisib; first compound 0.003162 µM
  relative viability: 0.727
Elesclomol + Alpelisib; first compound 0.01 µM
  relative viability: 0.243
Elesclomol + Alpelisib; first compound 0.03162 µM
  relative viability: 0.229
Elesclomol + Alpelisib; first compound 0.1 µM
  relative viability: 0.127
Elesclomol + Crizotinib; first compound 0.003162 µM
  relative viability: 0.501
Elesclomol + Crizotinib; first compound 0.01 µM
  relative viability: 0.222
Elesclomol + Crizotinib; first compound 0.03162 µM
  relative viability: 0.247
Elesclomol + Crizotinib; first compound 0.1 µM
  relative viability: 0.121
Elesclomol; 0.003162 µM
  relative viability: 0.768
Elesclomol; 0.01 µM
  relative viability: 0.317
Elesclomol; 0.03162 µM
  relative viability: 0.304
Elesclomol; 0.1 µM
  relative viability: 0.138

## NCI-H1623
Elesclomol + Luminespib; first compound 0.003162 µM
  relative viability: 0.235
Elesclomol + Luminespib; first compound 0.01 µM
  relative viability: 0.216
Elesclomol + Luminespib; first compound 0.03162 µM
  relative viability: 0.251
Elesclomol + Luminespib; first compound 0.1 µM
  relative viability: 0.217
Elesclomol + OSI-027; first compound 0.003162 µM
  relative viability: 0.386
Elesclomol + OSI-027; first compound 0.01 µM
  relative viability: 0.353
Elesclomol + OSI-027; first compound 0.03162 µM
  relative viability: 0.347
Elesclomol + OSI-027; first compound 0.1 µM
  relative viability: 0.296
Elesclomol + Dasatinib; first compound 0.003162 µM
  relative viability: 0.499
Elesclomol + Dasatinib; first compound 0.01 µM
  relative viability: 0.464
Elesclomol + Dasatinib; first compound 0.03162 µM
  relative viability: 0.312
Elesclomol + Dasatinib; first compound 0.1 µM
  relative viability: 0.254
Elesclomol + Foretinib; first compound 0.003162 µM
  relative viability: 0.868
Elesclomol + Foretinib; first compound 0.01 µM
  relative viability: 0.526
Elesclomol + Foretinib; first compound 0.03162 µM
  relative viability: 0.422
Elesclomol + Foretinib; first compound 0.1 µM
  relative viability: 0.422
Elesclomol + Phenformin; first compound 0.003162 µM
  relative viability: 0.624
Elesclomol + Phenformin; first compound 0.01 µM
  relative viability: 0.552
Elesclomol + Phenformin; first compound 0.03162 µM
  relative viability: 0.539
Elesclomol + Phenformin; first compound 0.1 µM
  relative viability: 0.443
Elesclomol + Tozasertib; first compound 0.003162 µM
  relative viability: 0.392
Elesclomol + Tozasertib; first compound 0.01 µM
  relative viability: 0.417
Elesclomol + Tozasertib; first compound 0.03162 µM
  relative viability: 0.35
Elesclomol + Tozasertib; first compound 0.1 µM
  relative viability: 0.303
Elesclomol; 0.003162 µM
  relative viability: 0.775
Elesclomol; 0.01 µM
  relative viability: 0.462
Elesclomol; 0.03162 µM
  relative viability: 0.37
Elesclomol; 0.1 µM
  relative viability: 0.339
